Tests used:
PC3 = assay: MTT cell viability assay, PC3; type: cell-based, human; settings: Homo sapiens, PC-3, 72 h, PC3, Prostate, 3 days culture
Experimental: (§1) 26 cancer cell lines were grown in normal growth medium in the presence of different concentrations Icaritin or Desmethylicaritin. After culture for 3 days, the cell viability was then measured by an MTT assay. […] Some EC50s were lower than 10 uM for these two compounds. […] Whereas, normal human mammary gland epithelial cells (MCF10A) were not sensitive to Icaritin and Desmethylicaritin. These cells grew well when treated with these two compounds at a concentration of 50 uM.

HCT-116 = assay: MTT cell viability assay, HCT-116; type: cell-based, human; settings: Homo sapiens, 72 h, HCT-116, Colon, 3 days culture
Experimental: as §1

MDA-MB-231 = assay: MTT cell viability assay, MDA-MB-231; type: cell-based, human; settings: Homo sapiens, 72 h, MDA-MB-231, Breast, 3 days culture
Experimental: as §1

G-361 = assay: MTT cell viability assay, G-361; type: cell-based, human; settings: Homo sapiens, 72 h, G-361, Skin, 3 days culture
Experimental: as §1

LNCAP = assay: MTT cell viability assay, LNCAP; type: cell-based, human; settings: Homo sapiens, 72 h, Prostate, 3 days culture
Experimental: as §1

Jurkat T cell = assay: MTT cell viability assay, Jurkat T cell; type: cell-based, human; settings: Homo sapiens, 72 h, Leukemia, 3 days culture
Experimental: as §1

[1] = system: FAS protein levels in LNCaP cells; assay: Western blot analysis for FAS protein levels; type: cell-based, human
Mid PaCa-2 = assay: MTT cell viability assay, Mid PaCa-2; type: cell-based, human; settings: Homo sapiens, 72 h, Mid PaCa-2, Pancreas, 3 days culture
Experimental: as §1

SK-MEL-5 = assay: MTT cell viability assay, SK-MEL-5; type: cell-based, human; settings: Homo sapiens, 72 h, SK-MEL-5, Skin, 3 days culture
Experimental: as §1

CCL-247 = assay: MTT cell viability assay, CCL-247; type: cell-based, human; settings: Homo sapiens, 72 h, CCL-247, Colon, 3 days culture
Experimental: as §1

HMVEC tube formation = HMVEC tube formation on Matrigel; type: cell-based, human; settings: 18 hours
Experimental: Endothelial cell tube formation in Matrigel is one measure of angiogenesis in vitro. The role of Icaritin in angiogenesis was assessed by determining the inhibition of HMVEC tube formation on Matrigel matrix plated onto 96-well plates. The HMVEC tube formation assay was performed as described previously. Briefly, 96-well plates were coated with 90 μL Matrigel (10 mg/mL, Collaborative Research) and incubated at 37° C. for 30 minutes to promote gelling. HMVECs (10,000 cells/sample) were resuspended in reduced growth medium (serum concentration 1% and 5 units/mL heparin) and added to each well with the indicated reagents in a final volume of 100 μL with different concentration of Icaritin. After 18 hours, the plates were fixed with Diff-Quik and at least four randomly selected fields per experimental condition were digitally recorded under bright-field illumination using a 10× objective. The mean additive length of all of the cords present in each optical field was measured using IPLab software and compared with controls using the Student's unpaired t test.

BT-549 = assay: MTT cell viability assay, BT-549; type: cell-based, human; settings: Homo sapiens, 72 h, BT-549, Breast, 3 days culture
Experimental: as §1

[2] = system: human micro vessel endothelial cell (HMVECs); assay: HMVEC proliferation assay; type: cell-based
Experimental: Icaritin is a potent inhibitor of angiogenesis. Inhibition of human micro vessel endothelial cell (HMVECs) proliferation by Icaritin was investigated. HMVEC proliferation in response to Icaritin was determined using a modified method from previously described procedures. Briefly, HMVECs fed 1 day before use (with a fresh media exchange to obtain optimal growth conditions) were trypsinized and resuspended at 5×10^4 cells/ml in EBM (Clonetics)+2% FBS+gentamicin. An equivalent number of cells (2.5×10^3) in 50 μl cell suspension was plated nonconfluently onto each well of a 96-well plate and allowed to adhere for 4 h at 37° C. Serial Icaritin dilutions were prepared in this media at 3× concentration, of which 50 μl was added to the 100 μl cell suspension already in the wells, resulting in 150 μl 1× dilutions. The plate was incubated for up to 72 h at 37° C. […] Absorbance was read at 490 nm on an ELISA plate reader with Microplate Manager (Bio-Rad, Richmond, Calif.). Proliferation curves for HMVECs were determined, and measurements were obtained and compared in the log proliferation phase, which was 3 days (t=72 h) for the conditions described. […]

CCL-225 = assay: MTT cell viability assay, CCL-225; type: cell-based, human; settings: Homo sapiens, 72 h, CCL-225, Colon, 3 days culture
Experimental: as §1

[3] = system: LNCaP cells and MDA-MB-231 cells; assay: Synthesis of lipid classes in cancer cells; type: cell-based, human
Experimental: Icaritin and Desmethylicaritin decrease Lipogenesis in Prostate and Breast Cancer cells via inhibition of fatty acid synthase (FAS) Activity. Protein extracts from LNCaP cells, which had been ^14C-labeled with malonyl-CoA, were pretreated with these two compounds. A concentration of 0.5 μM Icaritin or Desmethylicaritin reduced the in vitro enzymatic FAS activity to less than 50%. […] Consistent with their FAS inhibitory effect, inhibition of lipogenesis by Icaritin and Desmethylicaritin affected the synthesis of phospholipids (including phosphatidylcholine, phosphatidylethanolamine, phosphatidylinositol, phosphatidylserine, and sphingomyelin) and of triglycerides in LNCaP cells and MDA-MB-231 cells. […] Cholesterol synthesis, however, accounts for less than 10% of the total lipogenic activity in LNCaP and MDA-MB-231 cancer cells, whereas ˜75 and 15% of the lipogenic activity in these cells represents phospholipid and triglyceride synthesis, respectively.

MCF-7 = assay: MTT cell viability assay, MCF-7; type: cell-based, human; settings: Homo sapiens, MCF7, 72 h, MCF-7, Breast, 3 days culture
Experimental: as §1

SN12C = assay: MTT cell viability assay, SN12C; type: cell-based, human; settings: Homo sapiens, 72 h, Kidney, 3 days culture
Experimental: as §1

Raji = assay: MTT cell viability assay, Raji; type: cell-based, human; settings: Homo sapiens, 72 h, Lymphoma, 3 days culture
Experimental: as §1

## COc1ccc(-c2oc3c(CC=C(C)C)c(O)cc(O)c3c(=O)c2O)cc1 [Icaritin]
PC3
  IC50: 9.4 µM
HCT-116
  IC50: 6.4 µM
MDA-MB-231
  IC50: 5.3 µM
G-361
  IC50: 6.9 µM
LNCAP
  IC50: 5.3 µM
Jurkat T cell
  IC50: 5.1 µM
[1]
  FAS protein levels (Western blot): did not influence
Mid PaCa-2
  IC50: 8.1 µM
SK-MEL-5
  IC50: 9.9 µM
CCL-247
  IC50: 16.5 µM
HMVEC tube formation; 10 uM
  HMVEC tube formation: completely inhibited
HMVEC tube formation; Homo sapiens, HMVEC, read-out: EC50 to inhibit HMVEC tube formation
  EC50: 5.8 µM
BT-549
  IC50: 8 µM
[2]; 10 uM, HUVECs and HMVECs
  inhibition of proliferation and inducing cell apoptosis: significant levels of inhibition
[2]; Homo sapiens, HMVEC, 72 h, Cell Titer 96 Aqueous assay, read-out: EC50, inhibition of HMVEC proliferation
  EC50: 8.7 µM
CCL-225
  IC50: 8.8 µM
[3]; LNCaP and MDA-MB-231 cells
  synthesis of cholesterol: decreased
[3]; LNCaP cells and MDA-MB-231 cells
  synthesis of phospholipids and of triglycerides: affected
MCF-7
  IC50: 18.2 µM
SN12C
  IC50: 15.8 µM
Raji
  IC50: 5.4 µM
